What all share (assay): Kinase selectivity, scanMAX Kinase assay panel (DiscoverX), % control at 1 uM
Holding throughout (assay type): binding

Test [1] concerns the target T1, scanMAX Kinase assay panel (Homo sapiens, UniProt P10721).
T1 construct: purchased DiscoverX
Conditions: 1 uM, read-out: Percent Control (%). Summed up: (§1)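 Binding across the scanMAX kinase panel was tested at 1 uM compound. % control = (compound − positive control)/(negative control − positive control) × 100; below 35 counted as active.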

Test [2] deals with T2, scanMAX Kinase assay panel (Homo sapiens, UniProt P49137).
T2 construct: purchased DiscoverX
The following applies: MAPKAPK2; 1 uM; read-out: Percent Control (%). Summed up:
as §1

The target of test [3] is T3, scanMAX Kinase assay panel (Homo sapiens, UniProt Q8IU85).
T3 construct: purchased DiscoverX
Conditions: CAMK1D; 1 uM; read-out: Percent Control (%). Summed up:
as §1

Test [4] deals with T4, scanMAX Kinase assay panel (Homo sapiens, UniProt Q07002).
T4 construct: purchased DiscoverX
The following applies: PCTK3; 1 uM; read-out: Percent Control (%). The essentials: as §1

For test [5], the target named is T5, scanMAX Kinase assay panel (Homo sapiens, UniProt Q9UBE8).
T5 construct: purchased DiscoverX
T5 sequence (Q9UBE8 1-527): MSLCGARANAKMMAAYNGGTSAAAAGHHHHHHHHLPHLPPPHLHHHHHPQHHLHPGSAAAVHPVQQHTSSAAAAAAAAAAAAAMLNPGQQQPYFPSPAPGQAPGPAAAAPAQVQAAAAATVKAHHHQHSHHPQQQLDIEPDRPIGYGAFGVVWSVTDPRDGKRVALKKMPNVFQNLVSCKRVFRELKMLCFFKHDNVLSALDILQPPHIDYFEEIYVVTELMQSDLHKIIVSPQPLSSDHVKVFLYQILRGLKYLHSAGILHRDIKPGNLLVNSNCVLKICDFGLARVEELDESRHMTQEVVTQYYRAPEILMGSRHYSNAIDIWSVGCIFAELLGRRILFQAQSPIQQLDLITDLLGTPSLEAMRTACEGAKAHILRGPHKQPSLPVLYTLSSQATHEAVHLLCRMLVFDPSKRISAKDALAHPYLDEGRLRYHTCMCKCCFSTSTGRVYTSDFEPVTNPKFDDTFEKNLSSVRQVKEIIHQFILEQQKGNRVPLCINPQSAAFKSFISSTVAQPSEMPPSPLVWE
The following applies: NLK; 1 uM; read-out: Percent Control (%). Summed up:
as §1

In test [6] the target is T6, scanMAX Kinase assay panel (Homo sapiens, UniProt O75676).
T6 construct: purchased DiscoverX
Conditions: 1 uM, read-out: Percent Control (%). The essentials: as §1

Test [7] concerns the target T7, scanMAX Kinase assay panel (Homo sapiens, UniProt Q16539).
T7 construct: purchased DiscoverX
The following applies: p38-alpha; 1 uM; read-out: Percent Control (%). The essentials:
as §1

The target of test [8] is T8, scanMAX Kinase assay panel (Homo sapiens, UniProt P25098).
T8 construct: purchased DiscoverX
T8 sequence (P25098 1-689): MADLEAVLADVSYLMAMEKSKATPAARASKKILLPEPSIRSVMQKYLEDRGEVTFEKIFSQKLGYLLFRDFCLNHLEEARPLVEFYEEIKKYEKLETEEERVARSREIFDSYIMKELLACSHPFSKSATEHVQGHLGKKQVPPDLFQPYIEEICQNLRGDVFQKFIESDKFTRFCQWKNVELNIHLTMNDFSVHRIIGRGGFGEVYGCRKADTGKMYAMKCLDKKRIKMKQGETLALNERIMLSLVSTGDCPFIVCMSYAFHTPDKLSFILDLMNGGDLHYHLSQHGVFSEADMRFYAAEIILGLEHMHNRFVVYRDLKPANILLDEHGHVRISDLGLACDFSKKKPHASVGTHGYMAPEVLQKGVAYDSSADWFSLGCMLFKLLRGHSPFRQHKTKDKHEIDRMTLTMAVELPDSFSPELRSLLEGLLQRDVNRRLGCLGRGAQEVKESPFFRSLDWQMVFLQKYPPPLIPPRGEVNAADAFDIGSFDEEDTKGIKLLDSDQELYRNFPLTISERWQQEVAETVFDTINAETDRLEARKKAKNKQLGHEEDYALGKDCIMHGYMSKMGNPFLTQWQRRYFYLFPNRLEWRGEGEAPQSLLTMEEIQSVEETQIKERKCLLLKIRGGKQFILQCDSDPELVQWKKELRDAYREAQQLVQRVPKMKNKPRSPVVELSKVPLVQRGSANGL
Conditions: GRK2; 1 uM; read-out: Percent Control (%). Summed up:
as §1

The target of test [9] is T9, scanMAX Kinase assay panel (Homo sapiens, UniProt P08581, M1250T).
T9 construct: purchased DiscoverX
Conditions: MET (M1250T); 1 uM; read-out: Percent Control (%). The essentials: as §1

Test [10] concerns the target T10, scanMAX Kinase assay panel (Homo sapiens, UniProt Q16816).
T10 construct: purchased DiscoverX
Conditions: PHKG1; 1 uM; read-out: Percent Control (%). Summed up:
as §1

The target in test [11] is T11, scanMAX Kinase assay panel (Homo sapiens, UniProt Q9UK32).
T11 construct: purchased DiscoverX
Conditions: 1 uM, read-out: Percent Control (%). The essentials: as §1

Test [12] deals with T12, scanMAX Kinase assay panel (Homo sapiens, UniProt P42684).
T12 construct: purchased DiscoverX
The following applies: ABL2; 1 uM; read-out: Percent Control (%). Summed up: as §1

The target in test [13] is T13, scanMAX Kinase assay panel (Homo sapiens, UniProt Q8N752).
T13 construct: purchased DiscoverX
T13 sequence (Q8N752 1-337): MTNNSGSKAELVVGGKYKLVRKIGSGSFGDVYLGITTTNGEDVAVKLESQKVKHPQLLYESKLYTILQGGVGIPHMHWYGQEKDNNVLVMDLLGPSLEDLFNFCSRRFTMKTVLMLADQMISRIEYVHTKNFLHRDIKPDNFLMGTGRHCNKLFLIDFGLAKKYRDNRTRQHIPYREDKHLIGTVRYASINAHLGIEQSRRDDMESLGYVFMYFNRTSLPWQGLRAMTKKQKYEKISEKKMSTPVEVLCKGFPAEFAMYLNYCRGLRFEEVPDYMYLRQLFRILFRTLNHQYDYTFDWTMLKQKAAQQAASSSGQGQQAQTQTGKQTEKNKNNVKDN
The following applies: CSNK1A1L; 1 uM; read-out: Percent Control (%). Summed up:
as §1

Like-named read-outs stand apart in the source and are kept apart here.

T4 sequence (Q07002 whole entry): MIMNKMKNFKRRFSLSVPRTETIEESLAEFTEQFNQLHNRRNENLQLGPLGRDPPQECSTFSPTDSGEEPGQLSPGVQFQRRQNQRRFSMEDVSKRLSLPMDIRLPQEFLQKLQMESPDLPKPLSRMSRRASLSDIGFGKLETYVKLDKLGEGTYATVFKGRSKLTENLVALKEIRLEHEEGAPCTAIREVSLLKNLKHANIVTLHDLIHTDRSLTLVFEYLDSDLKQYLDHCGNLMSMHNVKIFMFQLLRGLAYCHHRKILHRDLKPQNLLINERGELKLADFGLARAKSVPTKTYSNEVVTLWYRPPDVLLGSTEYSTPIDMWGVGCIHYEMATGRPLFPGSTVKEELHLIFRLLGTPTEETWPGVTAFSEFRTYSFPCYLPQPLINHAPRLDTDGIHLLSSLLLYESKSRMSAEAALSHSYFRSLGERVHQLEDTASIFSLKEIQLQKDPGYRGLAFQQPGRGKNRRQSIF
T1 sequence (P10721 26-976): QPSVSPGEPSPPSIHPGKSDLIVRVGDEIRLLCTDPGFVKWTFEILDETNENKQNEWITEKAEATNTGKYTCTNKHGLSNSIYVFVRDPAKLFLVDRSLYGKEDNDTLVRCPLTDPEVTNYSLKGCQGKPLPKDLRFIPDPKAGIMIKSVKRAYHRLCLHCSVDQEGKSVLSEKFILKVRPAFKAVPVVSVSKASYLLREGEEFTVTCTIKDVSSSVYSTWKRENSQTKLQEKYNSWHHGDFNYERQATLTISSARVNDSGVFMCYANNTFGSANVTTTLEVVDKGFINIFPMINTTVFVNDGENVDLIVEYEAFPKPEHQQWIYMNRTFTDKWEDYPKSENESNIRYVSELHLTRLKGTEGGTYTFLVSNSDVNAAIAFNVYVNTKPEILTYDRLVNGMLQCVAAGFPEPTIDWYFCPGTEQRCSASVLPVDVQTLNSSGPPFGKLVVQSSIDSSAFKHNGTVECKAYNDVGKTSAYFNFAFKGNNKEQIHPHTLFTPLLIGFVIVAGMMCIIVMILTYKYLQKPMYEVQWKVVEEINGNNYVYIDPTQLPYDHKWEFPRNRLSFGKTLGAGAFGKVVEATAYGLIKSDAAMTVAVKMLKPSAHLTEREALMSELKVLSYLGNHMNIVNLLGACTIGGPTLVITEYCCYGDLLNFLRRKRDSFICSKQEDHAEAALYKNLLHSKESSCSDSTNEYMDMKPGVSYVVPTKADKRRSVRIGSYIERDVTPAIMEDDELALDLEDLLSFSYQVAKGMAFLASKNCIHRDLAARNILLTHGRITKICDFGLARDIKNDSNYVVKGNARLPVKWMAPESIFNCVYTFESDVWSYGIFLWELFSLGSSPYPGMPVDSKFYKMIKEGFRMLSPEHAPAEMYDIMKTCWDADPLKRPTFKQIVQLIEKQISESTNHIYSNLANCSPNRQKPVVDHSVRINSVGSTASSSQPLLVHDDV
T3 sequence (Q8IU85 whole entry): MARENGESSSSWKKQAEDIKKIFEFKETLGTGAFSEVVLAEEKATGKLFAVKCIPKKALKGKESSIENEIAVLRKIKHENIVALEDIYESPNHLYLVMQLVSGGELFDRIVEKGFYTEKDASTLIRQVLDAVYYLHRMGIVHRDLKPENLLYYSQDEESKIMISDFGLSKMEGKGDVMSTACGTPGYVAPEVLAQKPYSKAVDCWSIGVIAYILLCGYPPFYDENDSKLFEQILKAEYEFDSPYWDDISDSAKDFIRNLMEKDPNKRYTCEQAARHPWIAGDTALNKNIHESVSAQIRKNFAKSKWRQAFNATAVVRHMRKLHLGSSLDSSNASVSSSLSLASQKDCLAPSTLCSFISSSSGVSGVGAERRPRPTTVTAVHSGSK
T11 sequence (Q9UK32 whole entry): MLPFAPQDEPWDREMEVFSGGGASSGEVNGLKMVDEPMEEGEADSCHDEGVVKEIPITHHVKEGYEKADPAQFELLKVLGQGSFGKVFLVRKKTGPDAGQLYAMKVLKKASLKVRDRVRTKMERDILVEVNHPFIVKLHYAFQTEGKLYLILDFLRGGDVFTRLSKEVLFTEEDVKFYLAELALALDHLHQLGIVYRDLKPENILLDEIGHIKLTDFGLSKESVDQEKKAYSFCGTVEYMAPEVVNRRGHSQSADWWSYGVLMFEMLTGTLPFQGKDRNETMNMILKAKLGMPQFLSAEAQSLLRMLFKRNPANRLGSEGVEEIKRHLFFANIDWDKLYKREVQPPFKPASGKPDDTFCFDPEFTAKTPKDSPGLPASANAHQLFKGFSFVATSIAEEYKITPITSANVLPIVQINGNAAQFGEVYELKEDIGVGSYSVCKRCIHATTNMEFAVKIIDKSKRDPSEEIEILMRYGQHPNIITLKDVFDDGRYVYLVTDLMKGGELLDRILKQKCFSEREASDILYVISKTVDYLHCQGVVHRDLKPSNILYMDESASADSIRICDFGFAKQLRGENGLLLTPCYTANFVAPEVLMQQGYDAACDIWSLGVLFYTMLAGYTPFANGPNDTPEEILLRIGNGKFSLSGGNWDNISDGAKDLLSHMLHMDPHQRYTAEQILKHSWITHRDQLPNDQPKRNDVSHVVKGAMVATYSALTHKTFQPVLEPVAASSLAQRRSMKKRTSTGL
T6 sequence (O75676 whole entry): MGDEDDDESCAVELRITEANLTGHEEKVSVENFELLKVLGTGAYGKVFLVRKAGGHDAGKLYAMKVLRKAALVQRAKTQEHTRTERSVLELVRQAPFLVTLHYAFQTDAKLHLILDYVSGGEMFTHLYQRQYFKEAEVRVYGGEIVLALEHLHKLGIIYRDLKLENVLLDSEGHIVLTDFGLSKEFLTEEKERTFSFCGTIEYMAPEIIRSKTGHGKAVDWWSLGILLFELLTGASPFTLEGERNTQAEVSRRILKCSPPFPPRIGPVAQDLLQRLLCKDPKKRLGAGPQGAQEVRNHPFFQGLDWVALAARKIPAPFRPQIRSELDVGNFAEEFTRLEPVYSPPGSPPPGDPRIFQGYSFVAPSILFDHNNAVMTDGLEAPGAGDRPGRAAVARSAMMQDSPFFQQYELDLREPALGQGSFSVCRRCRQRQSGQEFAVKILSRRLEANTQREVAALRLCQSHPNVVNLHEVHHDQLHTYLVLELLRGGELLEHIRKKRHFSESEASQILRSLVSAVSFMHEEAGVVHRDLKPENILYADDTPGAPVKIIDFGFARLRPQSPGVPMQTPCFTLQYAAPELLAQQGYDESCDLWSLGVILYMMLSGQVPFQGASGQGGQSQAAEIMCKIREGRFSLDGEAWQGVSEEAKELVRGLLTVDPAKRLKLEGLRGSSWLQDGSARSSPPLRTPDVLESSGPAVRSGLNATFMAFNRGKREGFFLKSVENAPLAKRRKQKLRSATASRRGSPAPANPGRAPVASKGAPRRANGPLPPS
T9 sequence (P08581 25-1390 M1250T): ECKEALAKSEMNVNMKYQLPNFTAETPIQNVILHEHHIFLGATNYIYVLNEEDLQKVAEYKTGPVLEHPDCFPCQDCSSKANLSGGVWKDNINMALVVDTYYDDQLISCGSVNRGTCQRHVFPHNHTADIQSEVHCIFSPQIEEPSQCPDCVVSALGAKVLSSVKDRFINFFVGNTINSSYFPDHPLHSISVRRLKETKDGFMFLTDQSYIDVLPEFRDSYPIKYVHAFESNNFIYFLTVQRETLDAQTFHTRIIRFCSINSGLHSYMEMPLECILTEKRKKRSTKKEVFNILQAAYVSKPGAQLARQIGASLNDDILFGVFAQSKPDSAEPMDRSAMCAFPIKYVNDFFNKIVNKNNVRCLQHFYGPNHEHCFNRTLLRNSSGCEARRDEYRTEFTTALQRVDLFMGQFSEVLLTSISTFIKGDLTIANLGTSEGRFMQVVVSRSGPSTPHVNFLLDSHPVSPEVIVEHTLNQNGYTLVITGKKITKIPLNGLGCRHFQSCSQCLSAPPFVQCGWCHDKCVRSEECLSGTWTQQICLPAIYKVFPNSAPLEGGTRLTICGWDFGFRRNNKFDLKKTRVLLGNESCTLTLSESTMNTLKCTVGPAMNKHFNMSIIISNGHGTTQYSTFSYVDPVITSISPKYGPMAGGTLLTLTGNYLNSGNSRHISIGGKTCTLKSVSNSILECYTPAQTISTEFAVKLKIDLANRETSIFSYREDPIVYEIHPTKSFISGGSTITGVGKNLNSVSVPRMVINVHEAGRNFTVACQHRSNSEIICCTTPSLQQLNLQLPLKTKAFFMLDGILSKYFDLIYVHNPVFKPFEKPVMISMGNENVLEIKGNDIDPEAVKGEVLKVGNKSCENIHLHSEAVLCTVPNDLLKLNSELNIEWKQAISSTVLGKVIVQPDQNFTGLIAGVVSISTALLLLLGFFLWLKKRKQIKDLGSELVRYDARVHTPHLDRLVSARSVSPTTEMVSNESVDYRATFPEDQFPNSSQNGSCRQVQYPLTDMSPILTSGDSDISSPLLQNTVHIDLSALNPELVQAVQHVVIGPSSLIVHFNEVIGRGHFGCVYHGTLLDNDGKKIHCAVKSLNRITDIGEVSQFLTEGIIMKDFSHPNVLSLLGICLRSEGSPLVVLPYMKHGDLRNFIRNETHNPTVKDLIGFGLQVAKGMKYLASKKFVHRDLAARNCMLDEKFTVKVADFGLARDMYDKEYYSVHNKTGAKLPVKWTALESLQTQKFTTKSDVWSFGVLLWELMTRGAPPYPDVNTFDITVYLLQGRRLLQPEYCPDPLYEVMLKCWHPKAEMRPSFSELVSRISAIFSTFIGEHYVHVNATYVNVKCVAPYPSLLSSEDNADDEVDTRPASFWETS
T7 sequence (Q16539 whole entry): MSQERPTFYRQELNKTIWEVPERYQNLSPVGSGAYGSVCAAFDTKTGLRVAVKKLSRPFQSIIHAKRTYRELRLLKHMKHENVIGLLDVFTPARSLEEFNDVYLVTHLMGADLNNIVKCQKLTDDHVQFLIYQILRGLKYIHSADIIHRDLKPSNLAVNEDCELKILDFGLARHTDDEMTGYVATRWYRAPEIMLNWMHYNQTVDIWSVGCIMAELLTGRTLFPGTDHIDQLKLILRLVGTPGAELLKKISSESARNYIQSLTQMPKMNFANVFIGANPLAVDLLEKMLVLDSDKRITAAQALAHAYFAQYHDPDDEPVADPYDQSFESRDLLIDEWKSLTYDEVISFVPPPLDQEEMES

Turning to `Cc1ccc(C(=O)Nc2ccc(CN3CCN(C)CC3)c(C(F)(F)F)c2)cc1C#Cc1cnc2c(Nc3cnn(C)c3)cccn12` [Example 1, 4-methyl-3-((8-((1-methyl-1H-pyrazol-4-yl)amino)imidazo[1,2-a]pyridin-3-yl)ethynyl)-N-(4-((4-methylpiperazin-1-yl)methyl)-3-(trifluoromethyl)phenyl)benzamide], the remaining binding at 1 µM in test [1] (KIT-autoinhibited) was 77%; in test [1] (KIT), 0%; in test [2] it was 100%; in [3], 65%; in test [4], 60%; in test [5] it was 24%. The remaining binding at 1 µM in test [6] (RPS6KA4 (Kin.Dom.1-N-terminal)) stood at 31%; in test [6] (RPS6KA4 (Kin.Dom.2-C-terminal)) it was 94%; in test [7] it was 0%; in [8], 84%; in test [9] it was 32%; in test [10], 85%. The remaining binding at 1 µM is 81% in [11] (RSK4 (Kin.Dom.1-N-terminal)), 59% in test [11] (RSK4 (Kin.Dom.2-C-terminal)), 0% in test [12] and 93% in test [13].
In the case of `Cc1cn(-c2cc(NC(=O)c3ccc(C)c(C#Cc4cnc5c(Nc6cnn(C)c6)cccn45)c3)cc(C(F)(F)F)c2)cn1` [Example 12, 4-methyl-N-(3-(4-methyl-1H-imidazol-1-yl)-5-(trifluoromethyl)phenyl)-3-((8-((1-methyl-1H-pyrazol-4-yl)amino)imidazo[1,2-a]pyridin-3-yl)ethynyl)benzamide], the remaining binding at 1 µM came out at 98% in test [1] (KIT-autoinhibited); 1% in test [1] (KIT); 81% in test [2]; 82% in test [3]; 84% in [4]; 15% in [5]. Further, the remaining binding at 1 µM stood at 85% in test [6] (RPS6KA4 (Kin.Dom.1-N-terminal)); 100% in test [6] (RPS6KA4 (Kin.Dom.2-C-terminal)); 7% in [7]; 100% in test [8]; 28% in test [9]; 84% in [10]. Further, the remaining binding at 1 µM was 93% in test [11] (RSK4 (Kin.Dom.1-N-terminal)), 68% in [11] (RSK4 (Kin.Dom.2-C-terminal)), 1% in test [12] and 70% in test [13].
As for `Cc1ccc(NC(=O)C2(C(=O)Nc3ccc(F)cc3)CC2)cc1C#Cc1cnc2c(Nc3cnn(C(C)C)c3)cccn12` [Example 78], the remaining binding at 1 µM in test [1] (KIT-autoinhibited) is 93%; in [1] (KIT) it was 0%; in test [2] it was 98%; in test [3], 98%; in test [4], 100%; in test [5], 50%. Also, the remaining binding at 1 µM is 94% in [6] (RPS6KA4 (Kin.Dom.1-N-terminal)); 78% in [6] (RPS6KA4 (Kin.Dom.2-C-terminal)); 14% in [7]; 96% in [8]; 91% in test [9]; 88% in test [10]. For the same compound, the remaining binding at 1 µM in test [11] (RSK4 (Kin.Dom.1-N-terminal)) stood at 93%; in [11] (RSK4 (Kin.Dom.2-C-terminal)), 98%; in test [12], 14%; in [13] it was 100%.

These data come from patent publication US10870647B2, “Imidazopyridine derivative, method for preparing same, and pharmaceutical composition containing same as active ingredient for preventing or treating cancer” (DAEGU-GYEONGBUK MEDICAL INNOVATION FOUNDATION, priority 2016, dated 2020).
